{
  "source": "patent US20150004620A1",
  "about": "“METHOD OR DEVICE FOR IDENTIFYING INHIBITOR OF EPITHELIAL MESENCHYMAL TRANSITION” (Agency for Science, Technology and Research, priority 2011, published 2015)",
  "type_in_all_cases": "cell-based",
  "key": {"[1]": {"test_system": "plakoglobin", "test": "Western blot of plakoglobin in cell lines", "details": "2 μM for 48 hours vs 0.02% DMSO", "protocol": "FIG. 10 is a western blot image showing the increase in epithelial marker plakoglobin expression induced by AZD0530 in cell lines. Cell lines were treated with 2 μM AZD0530 or 0.02% DMSO control for 48 hours. Thus, FIG. 10 provides an example of possible downstream analysis that may be conducted subsequent to the detection of possible inhibitor by the method as described herein. In this figure, western blot analysis was used to validate the possible inhibitor detected by the method as described herein.\nFor western blot experiments with other cell lines, cells are treated either with AZD0530, such as 2 μM AZD0530 or DMSO, such as 0.02% DMSO control for 48 h. The samples are then processed using the same procedure as described above. The samples were probed with MMP-13, E-cadherin, plakoglobin (Cell Signaling), α-tubulin, and β-actin (Cell Signaling) antibodies."}, "[2]": {"test_system": "E-cadherin", "test": "Western blot of EMT marker E-cadherin in growth factor-treated NBT-II cells", "details": "NBT-II cells, 0.5, 2 and 8 μM compound overnight, then EGF, HGF or IGF-1 for 24 h (FIG. 7)", "protocol": "NBT-II cells were treated with compounds at 0.5, 2 and 8 μM overnight and incubated with a growth factor for 24 h. Cells were lysed with protease/phosphatase inhibitor-containing RIPA buffer. Proteins are separated in 8% polyacrylamide gels and transferred to PDVF membranes. Membranes were blocked in 5% BSA and incubated at 4° C. overnight with MMP-13 (Millipore), E-cadherin (BD) and α-tubulin (Sigma) primary antibodies. Membranes were then developed with HRP-conjugated secondary antibody (Amersham) and ECL substrate (Millipore).\nThe possibilities that ALK5, MEK, PI3K and SRC targeting compounds could modulate the expression of EMT markers, such as E-cadherin and matrix metalloproteinase-13 (MMP-13) under EMT-activated conditions were also investigated (FIG. 7). With the exception of P13K inhibitor GDC-0941, the compounds in general abrogated MMP-13 expression in growth factor-treated samples, PI3K inhibition has been previously shown to augment MMP-13 expression. […] These findings are consistent with previous reports showing that ALK5, MEK and SRC play a role in cell motility and tumor progression, while PI3K predominately regulates cell proliferation."}, "[3]": {"test_system": "IGF-1-induced EMT in NBT-II cells", "test": "EMT spot migration assay, IGF-1-induced", "details": "IGF-1-induced EMT (150 ng/ml IGF-1), CDR dose response from 6.67 μM, read-out: Cell Dispersion IC 50, IGF-1", "protocol": "NBT-II cells were stably transfected with mcherry-fluorescent H2B and maintained in DMEM supplemented with 10% fetal bovine serum (FBS, Thermo Scientific), 1 μg/ml puromycin (Sigma) and 100 units/ml penicillin-streptomycin (1× pen-strep, Invitrogen). Cells were grown to 80% confluency in tissue culture flasks prior to plating. Cells were trypsinized and concentrated to a density of 5×10^6 cell/ml in CO2-independent medium (Invitrogen) supplemented with 10% FBS. The cell suspension was then evenly dispersed into the wells of two columns of a 96-well V-bottom plate. Using a robotic liquid-handling station (Bravo, Agilent Technologies), 0.5 μl of cell suspension was transferred from the two columns of the cell suspension-loaded plate and deposited into the center of the wells of two columns of a 96-well clear bottom, black assay plate (Corning). This process was repeated six times so that all 96 wells of the assay plate were deposited with a cell suspension spot. The plate was then sealed to minimize evaporation of the cell suspension spots and transferred to a 37° C., 5% CO2 incubator to allow for cells to attach to the culture surface. After 1 hour, the plate was gently washed with medium once to remove unattached cells, refreshed with 100 μl of assay medium (DMEM supplemented with 10% FBS and 1× pen-strep), and then further incubated to allow for cell-cell contacts to establish in the cell colonies.\nFour tiled, non-overlapping images were acquired around the center of each well, and were then stitched together during image analysis to generate a montage covering an area of 3.2 mm×3.2 mm. These images (T1) represent the initial state of the cell colonies before EMT induction.\nAfter the T1 images were acquired, 1 μl of test compounds were transferred from compound stock plates and added to the assay plates. Appropriate negative controls (1 μl DMSO) and positive controls (1 μl 1.0 mM compound in DMSO) were also added into columns 1 and 12 of each assay plate, respectively. […] The cultures were then further incubated overnight.\nThe next day, 50 μl of growth factor-containing medium was added to each well of the assay-plates. For each of the growth factor-induced EMT spot migration assays, the final growth factor concentrations in each well is optimized to be 20 ng/ml EGF (Sigma), 4 ng/ml HGF (Calbiochem) or 150 ng/ml IGF-1 (R&D Systems), respectively. The cultures were then incubated for another 24 hours, to allow for EMT and sufficient cell motility/dispersion to occur in the cell colonies.\nFinally, the cell colonies were imaged again using the microplate imager, as described above. These images (T2) represent the final state of the cell colonies after compound treatment and EMT induction. The acquired T1 and T2 image sets for each assay plate were then sent for image analysis.\nThe acquisition of each well was obtained by four adjacent field images with no interstice in between. Each field image was loaded and nuclei were initially segmented independently of other fields to prevent artifact at the field border. Nuclei segmentation was achieved by combining a wavelet transform which is robust to noise and unhomogeneous background, and a watershed algorithm based on intensities to split nuclei clusters. Mask of nuclei segmentation of the different fields were then stitched together in order to obtain a large segmentation of the whole well. Cell bodies were estimated by applying a morphological dilation on the nucleus segmentation using a disk of 30 pixels (48 μm) in diameter. In cells that are contiguous, such as in a cell colony, nuclei segmentation dilation will result in the formation of continuous region areas with surrounding cells which can then be identified as colonies.\nTotal cell number and spreading coefficient values for each well were then exported into an Excel sheet."}, "[4]": {"test_system": "ovarian carcinoma cell lines", "test": "Cell movement tracking time-lapse videoscopy", "details": "2 μM for 48 hours, tracked for 24 hours", "protocol": "Cells were maintained in RMPI supplemented with 10% fetal bovine serum and 1× pen-strep. Cells were grown to 80% confluency in tissue culture flasks prior to plating. Cells were trysinized and plated onto a 12-well plate (BD) at a low density of 2000 cells per well in 1 ml of RMPI. Each ovarian cell line was seeded into two wells of a 12 well tissue culture plate. For each ovarian cell line, one of the two wells was treated with 2 μM AZD0530 and the other well treated with 0.02% DMSO control for 48 hours. Cells were imaged using a time-lapse video microscope incubator system (Leica) controlled by Metamorph software (Molecular Devices). Time-lapse images were taken at 5 min intervals for 24 hours and saved as tiff format. Each individual tiff images were compiled into stack images using the stack creation function in Metamorph. Each cell was tracked using the particle tracking function in Metamorph software. The tracking function detected and recorded the x and y coordinates of the cell being tracked for each image in the stack. The x and y coordinates were used to plot the track of the individual cell in excel. The total distance travelled, displacement and average velocity of the tracked cell were then tabulated."}, "[5]": {"details": "panel of ovarian carcinoma cell lines"}},
  "data": [
    {"molecule": "CN1CCN(CCOc2cc(OC3CCOCC3)c3c(Nc4c(Cl)ccc5c4OCO5)ncnc3c2)CC1", "note": "[AZD0530]", "values": [
      {"measurement": "Epithelial marker plakoglobin expression", "setting": "[1]", "value": "increase"},
      {"measurement": "E-cadherin expression", "setting": "[2]", "value": "augment E-cadherin expression"},
      {"measurement": "IC50", "setting": "[3]", "value": 240, "unit": "nM"},
      {"measurement": "Mobility (individual cell tracks)", "setting": "[4]; ovarian carcinoma cell lines", "value": "suppression of the mobility"},
      {"measurement": "Average displacement cells migrate", "setting": "[4]; [5]", "value": "decrease"},
      {"measurement": "Average velocity of cell migrations", "setting": "[4]; [5]", "value": "decrease"}
    ]}
  ]
}
